Measured values: PubChem BioAssay (NCI)
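Values below derive from 48-hour exposures of cells grown in 96-well plates, with endpoints linearly interpolated between the two concentrations bracketing the appropriate inhibition level. GI50 marks 50% less growth. TGI is the concentration that stops growth completely.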

Assays:
Assay in all cases: NCI anticancer screen, dose series, 48 h
786-0 renal = tested on: 786-0 renal
A498 renal = tested on: A498 renal
A549 NSCLC = tested on: A549 NSCLC
ACHN renal = tested on: ACHN renal
BT-549 breast = tested on: BT-549 breast
CAKI-1 renal = tested on: CAKI-1 renal
CCRF-CEM leukemia = tested on: CCRF-CEM leukemia
COLO 205 colon = tested on: COLO 205 colon
DU-145 prostate = tested on: DU-145 prostate
EKVX NSCLC = tested on: EKVX NSCLC
HCC-2998 colon = tested on: HCC-2998 colon
HCT-116 colon = tested on: HCT-116 colon
HCT-15 colon = tested on: HCT-15 colon
HL-60(TB) leukemia = tested on: HL-60(TB) leukemia
HOP-62 NSCLC = tested on: HOP-62 NSCLC
HOP-92 NSCLC = tested on: HOP-92 NSCLC
HS 578T breast = tested on: HS 578T breast
HT29 colon = tested on: HT29 colon
IGROV1 ovarian = tested on: IGROV1 ovarian
KM12 colon = tested on: KM12 colon
LOX IMVI melanoma = tested on: LOX IMVI melanoma
M14 melanoma = tested on: M14 melanoma
MALME-3M melanoma = tested on: MALME-3M melanoma
MCF7 breast = tested on: MCF7 breast
MDA-MB-231 breast = tested on: MDA-MB-231 breast
MDA-MB-435 = tested on: MDA-MB-435
MOLT-4 leukemia = tested on: MOLT-4 leukemia
NCI-H226 lung = tested on: NCI-H226 lung
NCI-H23 lung = tested on: NCI-H23 lung
NCI-H460 lung = tested on: NCI-H460 lung
NCI-H522 lung = tested on: NCI-H522 lung
NCI/ADR-RES ovarian = tested on: NCI/ADR-RES ovarian
OVCAR-3 ovarian = tested on: OVCAR-3 ovarian
OVCAR-4 ovarian = tested on: OVCAR-4 ovarian
OVCAR-5 ovarian = tested on: OVCAR-5 ovarian
OVCAR-8 ovarian = tested on: OVCAR-8 ovarian
PC-3 prostate = tested on: PC-3 prostate
RPMI-8226 leukemia = tested on: RPMI-8226 leukemia
RXF 393 renal = tested on: RXF 393 renal
SF-268 CNS = tested on: SF-268 CNS
SF-295 CNS = tested on: SF-295 CNS
SF-539 CNS = tested on: SF-539 CNS
SK-MEL-2 melanoma = tested on: SK-MEL-2 melanoma
SK-MEL-28 melanoma = tested on: SK-MEL-28 melanoma
SK-MEL-5 melanoma = tested on: SK-MEL-5 melanoma
SK-OV-3 ovarian = tested on: SK-OV-3 ovarian
SN12C renal = tested on: SN12C renal
SNB-19 CNS = tested on: SNB-19 CNS
SNB-75 CNS = tested on: SNB-75 CNS
SW-620 colon = tested on: SW-620 colon
T-47D breast = tested on: T-47D breast
TK-10 renal = tested on: TK-10 renal
U251 CNS = tested on: U251 CNS
UACC-257 melanoma = tested on: UACC-257 melanoma
UACC-62 melanoma = tested on: UACC-62 melanoma
UO-31 renal = tested on: UO-31 renal

Cc1ncc(C(=O)Nc2ccc(CN3CCN(C)CC3)c(C(F)(F)F)c2)cc1C#Cc1c(N)ncc2ccc(F)cc12
GI50 (786-0 renal): 756 nM
TGI (786-0 renal): 1560 nM
GI50 (A498 renal): 930 nM
TGI (A498 renal): 1740 nM
GI50 (A549 NSCLC): 631 nM
TGI (A549 NSCLC): 1440 nM
GI50 (ACHN renal): 374 nM
TGI (ACHN renal): 3230 nM
GI50 (BT-549 breast): 1490 nM
TGI (BT-549 breast): 4120 nM
GI50 (CAKI-1 renal): 1050 nM
TGI (CAKI-1 renal): 6160 nM
GI50 (CCRF-CEM leukemia): 809 nM
TGI (CCRF-CEM leukemia): 2140 nM
GI50 (COLO 205 colon): 197 nM
TGI (COLO 205 colon): 1230 nM
GI50 (DU-145 prostate): 692 nM
TGI (DU-145 prostate): 1390 nM
GI50 (EKVX NSCLC): 1540 nM
TGI (EKVX NSCLC): 9370 nM
GI50 (HCC-2998 colon): 1010 nM
TGI (HCC-2998 colon): 7810 nM
GI50 (HCT-116 colon): 176 nM
TGI (HCT-116 colon): 873 nM
GI50 (HCT-15 colon): 559 nM
TGI (HCT-15 colon): 3150 nM
GI50 (HL-60(TB) leukemia): 319 nM
TGI (HL-60(TB) leukemia): 2060 nM
GI50 (HOP-62 NSCLC): 1180 nM
TGI (HOP-62 NSCLC): 8180 nM
GI50 (HOP-92 NSCLC): 48.9 nM
TGI (HOP-92 NSCLC): 468 nM
GI50 (HS 578T breast): 588 nM
TGI (HS 578T breast): 2740 nM
GI50 (HT29 colon): 68.9 nM
TGI (HT29 colon): 651 nM
GI50 (IGROV1 ovarian): 301 nM
TGI (IGROV1 ovarian): 6270 nM
GI50 (KM12 colon): 5 nM
TGI (KM12 colon): 646 nM
GI50 (LOX IMVI melanoma): 184 nM
TGI (LOX IMVI melanoma): 841 nM
GI50 (M14 melanoma): 128 nM
TGI (M14 melanoma): 690 nM
GI50 (MALME-3M melanoma): 105 nM
TGI (MALME-3M melanoma): 601 nM
GI50 (MCF7 breast): 503 nM
TGI (MCF7 breast): 1330 nM
GI50 (MDA-MB-231 breast): 129 nM
TGI (MDA-MB-231 breast): 743 nM
GI50 (MDA-MB-435): 170 nM
TGI (MDA-MB-435): 1040 nM
GI50 (MOLT-4 leukemia): 579 nM
TGI (MOLT-4 leukemia): 1740 nM
GI50 (NCI-H226 lung): 624 nM
TGI (NCI-H226 lung): 3650 nM
GI50 (NCI-H23 lung): 596 nM
TGI (NCI-H23 lung): 1370 nM
GI50 (NCI-H460 lung): 643 nM
TGI (NCI-H460 lung): 1470 nM
GI50 (NCI-H522 lung): 668 nM
TGI (NCI-H522 lung): 1830 nM
GI50 (NCI/ADR-RES ovarian): 1260 nM
TGI (NCI/ADR-RES ovarian): 4250 nM
GI50 (OVCAR-3 ovarian): 789 nM
TGI (OVCAR-3 ovarian): 1540 nM
GI50 (OVCAR-4 ovarian): 2600 nM
TGI (OVCAR-4 ovarian): 10800 nM
GI50 (OVCAR-5 ovarian): 669 nM
TGI (OVCAR-5 ovarian): 3030 nM
GI50 (OVCAR-8 ovarian): 931 nM
TGI (OVCAR-8 ovarian): 2410 nM
GI50 (PC-3 prostate): 870 nM
TGI (PC-3 prostate): 3140 nM
GI50 (RPMI-8226 leukemia): 673 nM
TGI (RPMI-8226 leukemia): 2170 nM
GI50 (RXF 393 renal): 608 nM
TGI (RXF 393 renal): 1290 nM
GI50 (SF-268 CNS): 717 nM
TGI (SF-268 CNS): 2500 nM
GI50 (SF-295 CNS): 3450 nM
TGI (SF-295 CNS): 11300 nM
GI50 (SF-539 CNS): 624 nM
TGI (SF-539 CNS): 1300 nM
GI50 (SK-MEL-2 melanoma): 1050 nM
TGI (SK-MEL-2 melanoma): 5770 nM
GI50 (SK-MEL-28 melanoma): 415 nM
TGI (SK-MEL-28 melanoma): 1230 nM
GI50 (SK-MEL-5 melanoma): 678 nM
TGI (SK-MEL-5 melanoma): 1530 nM
GI50 (SK-OV-3 ovarian): 4790 nM
TGI (SK-OV-3 ovarian): 12000 nM
GI50 (SN12C renal): 422 nM
TGI (SN12C renal): 3050 nM
GI50 (SNB-19 CNS): 787 nM
TGI (SNB-19 CNS): 1490 nM
GI50 (SNB-75 CNS): 774 nM
TGI (SNB-75 CNS): 2270 nM
GI50 (SW-620 colon): 274 nM
TGI (SW-620 colon): 1070 nM
GI50 (T-47D breast): 4100 nM
TGI (T-47D breast): 16300 nM
GI50 (TK-10 renal): 715 nM
TGI (TK-10 renal): 1520 nM
GI50 (U251 CNS): 826 nM
TGI (U251 CNS): 1580 nM
GI50 (UACC-257 melanoma): 649 nM
TGI (UACC-257 melanoma): 3220 nM
GI50 (UACC-62 melanoma): 282 nM
TGI (UACC-62 melanoma): 2840 nM
GI50 (UO-31 renal): 602 nM
TGI (UO-31 renal): 2800 nM
